Molecules are shown by their SMILES. Values joined by “and” are separate entries in the source; they are usually repeats but may differ in a detail not shown here. Identical values can stand only once.

The assay deals with metastatic colon cancer patients. Nature of the assay: Overall survival of metastatic colon cancer patients treated with 5-FU-based chemotherapy, by gender and EGFR genotype. The assay is classed as in vivo, human. The conditions noted are these: for RR (95% CI): relative risk. From the text: A total of 318 patients with metastatic colon cancer treated at the University of Southern California/Norris Comprehensive Cancer Center (USC/NCCC) or the Los Angeles County/University of Southern California Medical Center (LAC/USCMC), between 1992 and 2003, were eligible for the present study. This population included only metastatic or recurrent colon cancer patients. All patients in this study signed informed consents and enrolled in protocols designed to study the molecular determinants of colon cancer. These protocols permitted blood collection (USC protocol OS-99-10) and/or tissue collection (USC protocol 0S-00-15).
All patients were entered and followed in an institutional database. Patient information was collected through database review and retrospective chart review when additional patient information was necessary. A large number of the patients (69%) were initially treated at an outside institution until, because of failure to respond to prior treatment, they were referred to USC/NCCC or LAC/USCMC for subsequent treatments. The end point of this study, OS, was determined by calculating the difference between the date of first treatment at USC/NCCC or LAC/USC and the date of last follow-up appointment or date of death from disease.
All 318 patients were enrolled in at least one chemotherapy clinical trial while being treated at this institution (USC/NCCC or LAC/USCMC). All patients were treated with 5-fluorouracil (5-FU)-based chemotherapy regimens, and response to chemotherapy was not investigated as an end point for this study. This is a heavily pretreated cohort with 20 (6%) patients treated with one line of chemotherapy, 19 (6%) patients treated with two different chemotherapy regimens, 183 (58%) patients treated with three chemotherapy regimens, and 96 (30%) patients treated with four or more chemotherapy regimens. […] All 318 patients received treatment with 5-FU, 298 (94%) patients received treatment with 5-FU/irinotecan (CPT-11), and 279 (88%) patients received treatment with 5-FU/oxaliplatin.
The primary end point of this study is OS. The OS was determined by calculating the difference between the date of first treatment at USC/NCCC or LAC/USC and the date of last follow-up appointment or date of death. Patients who were alive at the last follow-up were censored at that time.
The associations between sex and other demographic and clinical characteristics were examined using contingency tables and the Fisher exact test. The dominant code for HER-1 R497K was used for the association with OS, and patients who carried heterozygous (Arg/Lys) and homozygous mutant genotypes (Lys/Lys) were grouped together. EGFR intron 1 (CA)n repeat polymorphism was categorized into two groups: both alleles with <20 (CA)n (SEQ ID NO: 3) and any alleles with ≧20 (CA)n (SEQ ID NO: 4) as described previously (19). The associations of HER-1 R497K and EGFR intron 1 (CA)n repeat polymorphisms with OS were analyzed individually using Kaplan-Meier plots and the log-rank test. The independent effects of two EGFR polymorphisms on OS were examined in multivariable analysis using Cox proportional hazards model. Interactions between sex and EGFR polymorphisms were examined using stratified models and were tested by comparing corresponding likelihood ratio statistics between the baseline and nested Cox proportional hazards models that included the multiplicative product terms (20).

As to `O=c1[nH]cc(F)c(=O)[nH]1` [5-FU, 5-fluorouracil], the “Median survival (95% CI)” value was 14.1 mo and 14.1 (12.1-18.3) mo (female, EGFR intron 1 any (CA)n repeats ≧20); 17.6 mo and 17.9 mo and 17.6 (13.7-22.7) mo (female, EGFR intron 1 both (CA)n repeats <20); 16.0 (13.5-19.2) mo (female, HER-1 R497K Arg/Arg, 5-FU-based chemotherapy regimens); 14.0 (11.2-17.9) mo (female, HER-1 R497K Lys allele (Arg/Lys or Lys/Lys)); 15.7 (11.5-41.4) mo (female, combined: Arg/Arg and (CA)n <20); 17.3 (14.0-19.2) mo (female, combined: Arg/Arg and (CA)n ≧20 or Lys and (CA)n <20). Also, the “Median survival (95% CI)” value (female, combined: Lys and (CA)n ≧20) is listed as 12.2 (7.7-16.7) mo; the “Median survival (95% CI)” value (male, EGFR intron 1 any (CA)n repeats ≧20) is 13.1 mo and 13.1 (10.7-16.0) mo; the “Median survival (95% CI)” value (male, EGFR intron 1 both (CA)n repeats <20) is 10.3 mo and 10.4 mo and 10.3 (8.3-15.5) mo; the “Median survival (95% CI)” value (male, HER-1 R497K Arg/Arg, 5-FU-based chemotherapy regimens) is reported as 10.3 (9.0-13.5) mo; the “Median survival (95% CI)” value (male, HER-1 R497K Lys allele (Arg/Lys or Lys/Lys)) is given as 13.7 (10.8-19.1) mo; the “Median survival (95% CI)” value (male, combined: Arg/Arg and (CA)n <20) was 8.9 (7.3-11.4) mo. Besides, the “Median survival (95% CI)” value runs as follows: (male, combined: Arg/Arg and (CA)n ≧20 or Lys and (CA)n <20) 13.1 (10.3-17.5) mo; (male, combined: Lys and (CA)n ≧20) 13.6 (10.7-19.5) mo. Further, the “RR (95% CI)” value is 0.93 (0.56-1.54) (female, Arg/Arg and (CA)n ≧20 or Lys and (CA)n <20 vs Arg/Arg and (CA)n <20 (reference)); 1.41 (0.94-2.10) (female, Lys allele vs Arg/Arg (reference), Cox model); 1.90 (1.10-3.29) (female, Lys and (CA)n ≧20 vs Arg/Arg and (CA)n <20 (reference)); 1.37 (0.93-2.01) (female, any (CA)n ≧20 vs both <20 (reference)); 0.84 (0.57-1.25) (male, Arg/Arg and (CA)n ≧20 or Lys and (CA)n <20 vs Arg/Arg and (CA)n <20 (reference)); 0.64 (0.46-0.89) (male, Lys allele vs Arg/Arg (reference), Cox model). Moreover, the “RR (95% CI)” value reads like this: (male, Lys and (CA)n ≧20 vs Arg/Arg and (CA)n <20 (reference)) 0.62 (0.39-0.97); (male, any (CA)n ≧20 vs both <20 (reference)) 0.92 (0.67-1.28).
